Experimental data: ChEMBL document CHEMBL1138536, “A Ser678Pro substitution in Fks1p confers resistance to echinocandin drugs in Aspergillus fumigatus” (Antimicrob Agents Chemother, 2007)
In brackets after ≈: the same amount, converted by molar mass. Numbered stars: 1 amine (or outer) side, 2 acyl side, 3 side chain; on linkers, the order of the positions; unused ones are H or OH. Bridge positions count the residues as written; N and C are the ends. Square brackets hold non-standard residues; d marks the D form. Peptide text beside a SMILES is read from it. * marks the point of attachment. hTyr(3S-OH,4S-OH,3'-OSO3H) = N[C@H](C(=O)O)[C@H](O)[C@@H](O)c1ccc(O)c(OS(=O)(=O)O)c1; pTerphenylCO(4''-OnC5H11) = CCCCCOc1ccc(-c2ccc(-c3ccc(C(=O)*)cc3)cc2)cc1; Orn(4R-OH,5R-OH) = O=C([C@H](C[C@@H](O)[C@@H](O)N[*:3])N[*:1])[*:2]; hTyr(3S-OH,4S-OH) = N[C@H](C(=O)O)[C@H](O)[C@@H](O)c1ccc(O)cc1; Pro(3S-OH,4S-Me) = C[C@H]1CN[C@H](C(=O)O)[C@H]1O; X1 = CCCCCOc1ccc(-c2cc(-c3ccc(C(=O)*)cc3)no2)cc1; Gln(3R-OH) = NC(=O)C[C@@H](O)[C@H](N)C(=O)O; Hyp = O=C(O)[C@@H]1C[C@@H](O)CN1

Tests used:
[1] = tested on: Aspergillus fumigatus; assay: Antifungal activity against Aspergillus fumigatus expressing wild-type fks1 gene KU80delta after 24 to 48 hrs by broth dilution susceptibility test; type: functional; conditions: read-out: MEC
[2] = tested on: Aspergillus fumigatus; assay: Antifungal activity against Aspergillus fumigatus expressing fks1 gene EMFR-S678P mutant after 24 to 48 hrs by broth dilution susceptibility test; type: functional; conditions: read-out: MEC
[3] = tested on: Aspergillus fumigatus; assay: Antifungal activity against Aspergillus fumigatus expressing fks1 gene EMFR-S678P/WT mutant after 24 to 48 hrs by broth dilution susceptibility test; type: functional; conditions: read-out: MEC
[4] = Inhibition of wild-type 1,3-beta-D-glucan synthase KU80delta from Aspergillus fumigatus assessed as incorporation of [3H]glucose
[5] = target: Fksp (Neosartorya fumigata (Aspergillus fumigatus), UniProt P87204, S678P); assay: Inhibition of 1,3-beta-D-glucan synthase EMFR-S678P mutant from Aspergillus fumigatus assessed as incorporation of [3H]glucose
Chain of Fksp (P87204 entry or part of it S678P): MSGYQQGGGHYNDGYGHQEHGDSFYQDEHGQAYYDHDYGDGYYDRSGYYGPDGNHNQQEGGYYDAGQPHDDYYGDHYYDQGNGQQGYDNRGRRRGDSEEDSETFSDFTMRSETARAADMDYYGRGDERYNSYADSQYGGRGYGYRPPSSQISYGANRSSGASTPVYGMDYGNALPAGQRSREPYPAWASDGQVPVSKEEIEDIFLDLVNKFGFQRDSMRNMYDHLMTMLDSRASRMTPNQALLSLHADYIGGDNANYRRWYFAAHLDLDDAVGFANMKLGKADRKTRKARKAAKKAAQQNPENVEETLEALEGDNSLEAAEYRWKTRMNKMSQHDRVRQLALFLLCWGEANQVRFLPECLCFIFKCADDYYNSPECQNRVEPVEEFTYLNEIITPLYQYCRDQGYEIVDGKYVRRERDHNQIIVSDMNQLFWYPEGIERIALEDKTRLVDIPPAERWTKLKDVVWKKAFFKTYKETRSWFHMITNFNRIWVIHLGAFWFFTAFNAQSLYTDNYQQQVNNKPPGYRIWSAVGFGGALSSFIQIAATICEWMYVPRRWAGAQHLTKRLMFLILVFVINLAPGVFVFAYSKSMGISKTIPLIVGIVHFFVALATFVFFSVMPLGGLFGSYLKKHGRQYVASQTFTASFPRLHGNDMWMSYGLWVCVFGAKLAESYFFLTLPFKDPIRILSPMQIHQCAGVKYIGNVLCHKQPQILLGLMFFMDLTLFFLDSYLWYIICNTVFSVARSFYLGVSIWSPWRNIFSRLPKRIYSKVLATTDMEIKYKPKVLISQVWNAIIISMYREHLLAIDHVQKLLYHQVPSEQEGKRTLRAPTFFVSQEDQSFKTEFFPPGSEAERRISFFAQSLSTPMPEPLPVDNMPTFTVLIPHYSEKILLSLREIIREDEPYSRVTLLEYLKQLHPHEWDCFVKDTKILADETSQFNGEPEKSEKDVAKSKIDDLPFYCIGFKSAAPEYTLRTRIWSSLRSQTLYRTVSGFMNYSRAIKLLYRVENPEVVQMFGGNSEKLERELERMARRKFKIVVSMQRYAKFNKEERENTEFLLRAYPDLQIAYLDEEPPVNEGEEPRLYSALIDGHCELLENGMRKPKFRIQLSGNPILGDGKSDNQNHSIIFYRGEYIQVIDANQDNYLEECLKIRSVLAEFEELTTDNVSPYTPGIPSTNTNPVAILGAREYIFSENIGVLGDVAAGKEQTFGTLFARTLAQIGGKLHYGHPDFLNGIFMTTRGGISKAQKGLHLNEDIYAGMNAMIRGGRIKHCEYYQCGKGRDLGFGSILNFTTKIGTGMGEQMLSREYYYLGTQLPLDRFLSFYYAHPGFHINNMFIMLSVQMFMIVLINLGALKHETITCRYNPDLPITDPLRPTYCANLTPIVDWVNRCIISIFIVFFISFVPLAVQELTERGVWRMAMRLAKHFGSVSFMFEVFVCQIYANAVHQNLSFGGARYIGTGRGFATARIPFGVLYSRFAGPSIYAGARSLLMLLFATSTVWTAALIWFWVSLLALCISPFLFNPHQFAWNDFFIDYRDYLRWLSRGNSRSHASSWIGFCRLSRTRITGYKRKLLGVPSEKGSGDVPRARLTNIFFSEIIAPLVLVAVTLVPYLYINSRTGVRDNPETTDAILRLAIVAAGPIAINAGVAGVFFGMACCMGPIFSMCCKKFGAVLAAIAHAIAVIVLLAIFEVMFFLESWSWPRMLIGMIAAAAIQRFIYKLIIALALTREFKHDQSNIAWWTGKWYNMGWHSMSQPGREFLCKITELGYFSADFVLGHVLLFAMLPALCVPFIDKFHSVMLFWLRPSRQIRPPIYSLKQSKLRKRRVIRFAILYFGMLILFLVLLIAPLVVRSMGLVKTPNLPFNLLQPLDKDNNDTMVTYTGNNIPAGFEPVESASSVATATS

[6] = Inhibition of 1,3-beta-D-glucan synthase EMFR-S678P/WT mutant from Aspergillus fumigatus assessed as incorporation of [3H]glucose
[7] = tested on: Aspergillus fumigatus; assay: Ratio of IC50 for Aspergillus fumigatus 1,3-beta-D-glucan synthase EMFR-S678P mutant to IC50 for Aspergillus fumigatus wild-type 1,3-beta-D-glucan synthase KU80delta

For `CCCCCOc1ccc(-c2ccc(-c3ccc(C(=O)N[C@H]4C[C@@H](O)[C@@H](O)NC(=O)[C@@H]5[C@@H](O)[C@@H](C)CN5C(=O)[C@H]([C@@H](C)O)NC(=O)[C@H]([C@H](O)[C@@H](O)c5ccc(O)cc5)NC(=O)[C@@H]5C[C@@H](O)CN5C(=O)[C@H]([C@@H](C)O)NC4=O)cc3)cc2)cc1` [ANIDULAFUNGIN] ({pTerphenylCO(4''-OnC5H11)}-[Orn(4R-OH,5R-OH)]T[Hyp][hTyr(3S-OH,4S-OH)]T[Pro(3S-OH,4S-Me)]; lactam 1-C), the minimal effective concentration [1] was 0.015 µg/mL, the minimal effective concentration [2] was 16 µg/mL and the minimal effective concentration [3] was 8 µg/mL. The IC50 [4] was 0.24 ng/mL (≈ 0.21 nM), the IC50 [5] was 25.6 nM and the IC50 [6] was 0.37 ng/mL (≈ 0.324 nM). The Ratio IC50 [7] was 122.
`CC[C@H](C)C[C@H](C)CCCCCCCCC(=O)N[C@H]1C[C@@H](O)[C@@H](NCCN)NC(=O)[C@@H]2[C@@H](O)CCN2C(=O)[C@H]([C@H](O)CCN)NC(=O)[C@H]([C@H](O)[C@@H](O)c2ccc(O)cc2)NC(=O)[C@@H]2C[C@@H](O)CN2C(=O)[C@H]([C@@H](C)O)NC1=O` [CASPOFUNGIN] showed a minimal effective concentration [1] of 0.25 µg/mL, a minimal effective concentration [2] of over 16 µg/mL and a minimal effective concentration [3] of over 16 µg/mL. For the same compound, the IC50 [4] was 0.91 ng/mL (≈ 0.832 nM), the IC50 [5] was 100 nM and the IC50 [6] was 0.12 ng/mL (≈ 0.11 nM). The Ratio IC50 [7] was 121.
`CCCCCOc1ccc(-c2cc(-c3ccc(C(=O)N[C@H]4C[C@@H](O)[C@@H](O)NC(=O)[C@@H]5[C@@H](O)[C@@H](C)CN5C(=O)[C@H]([C@H](O)CC(N)=O)NC(=O)[C@H]([C@H](O)[C@@H](O)c5ccc(O)c(OS(=O)(=O)O)c5)NC(=O)[C@@H]5C[C@@H](O)CN5C(=O)[C@H]([C@@H](C)O)NC4=O)cc3)no2)cc1` [MICAFUNGIN] (X1-[Orn(4R-OH,5R-OH)]T[Hyp][hTyr(3S-OH,4S-OH,3'-OSO3H)][Gln(3R-OH)][Pro(3S-OH,4S-Me)]; lactam 1-C) showed a minimal effective concentration [1] of 0.015 µg/mL, a minimal effective concentration [2] of over 16 µg/mL and a minimal effective concentration [3] of 8 µg/mL. The IC50 [4] was 0.63 ng/mL (≈ 0.496 nM), the IC50 [5] was 9.93 nM and the IC50 [6] was 0.5 ng/mL (≈ 0.394 nM). It also gave a Ratio IC50 [7] of 20.
